The structures appear in SMILES notation.

The first experiment concerns the target T1, HIV-1 RT (Human immunodeficiency virus type 1 group M subtype B, UniProt P03367).
T1 construct: Reverse transcriptase enzyme from the LAV strain of Human Immunodeficiency Virus (HIV-1) (1) was isolated from the bacterial strain JM109; made in house; host or cells: E. coli JM109, clone pBRTprt1+ in vector pIBI21, lac promoter, IPTG induction
In words: Reverse Transcriptase (RT) Assay: inhibition of RNA-dependent DNA polymerase activity. The experiment is classed as biochemical. To be noted: 10µg/ml; Table I, compounds of formula I; read-out: RT Inhibition % @ 10µg/ml. An excerpt: Utilizing the Reverse Transcriptase (RT) Assay descibed below, compounds can be tested for their ability to inhibit the RNA-dependent DNA polymerase activity of HIV-1 RT. Certain specific compounds of formula I described in the Examples which appear below, were so tested. The above-described compounds of formula IA were also so tested.
Among the enzymes for which Human Immunodeficiency Virus (HIV-1) encodes is a reverse transcriptase (1), so-named because it transcribes a DNA copy from an RNA template. This activity can be quantitatively measured in a cell-free enzyme assay which has been previously described (2), and is based upon the observation that reverse transcriptase is able to use a synthetic template [poly r(C) primed with oligo d(G)] to transcribe a radio-labelled, acid-precipitable DNA strand utilizing ^3H-dGTP as a substrate.
Reverse transcriptase enzyme from the LAV strain of Human Immunodeficiency Virus (HIV-1) (1) was isolated from the bacterial strain JM109 (3) expressing the DNA clone pBRTprt1+ (2) which is under the control of the lac promoter in the expression vector pIBI21 (4). An overnight culture grown in 2XYT medium (37°C, 225 rpm) (5) supplemented with 100 µg/ml ampicillin for positive selection is inoculated at a 1:40 dilution into M9 medium supplemented with 10µg/ml thiamine, 0.5% casamino acids, and 50 µg/ml ampicillin (5). The culture is incubated (37°C, 225 rpm) until it reaches an OD540 of 0.3-0.4. At that time the repressor inhibitor IPTG (isopropyl b-D-thiogalactopyranoside) is added to 0.5mM and the mixture is incubated for 2 additional hours. Bacteria are pelleted, resuspended in a 50mM Tris, 0.6mM EDTA, 0.375M NaCl buffer and digested by the addition of lysozyme (1mg/ml) for 30 minutes on ice. The cells are lysed by the addition of 0.2% NP-40 and brought to 1M NaCl.
After removal of the insoluble debris by centrifugation, the protein is precipitated by the addition of 3 volumes of water-saturated ammonium sulfate. The enzyme is pelleted, resuspended in RT buffer (50mM Tris pH 7.5. 1mM EDTA, 5mM DTT, 0.1% NP-40, 0.1M NaCl, and 50% glycerol), and stored at -70°C for further use.
The 2X concentrated stock reaction mixture is aliquoted and stored at -20°C. The mixture is stable and thawed for use in each assay. This enzyme assay has been adapted to a 96 well microtiter plate system, and has been previously described (6). Tris buffer (50 mM, pH 7.4), vehicle (solvent diluted to match the compound dilution), or compounds in vehicle are dispensed into 96-well microtiter plates (10µl/well: 3 wells/compound). The HIV-1 RT enzyme is thawed and diluted in 50mM Tris pH 7.4 so that fifteen µl of diluted enzyme contain 0.001 Unit (one unit is that amount of enzyme to transform 1 micromole of substrate per minute at 25°C) and 15µl are dispensed per well. Twenty µl of 0.12 - 0.5M EDTA are added to the first three wells of the microtiter plate. EDTA chelates the Mg^++ present and prevents reverse transcription. This group serves as background polymerization which is subtracted from all other groups. Twenty-five ul of the 2X reaction mixture are added to all wells and the assay is allowed to incubate at room temperature for 60 minutes. The assay is terminated by precipitating the DNA in each well with 50µl of trichloracetic acid (TCA) (10% w/v) in sodium pyrophosphate (1% w/v). The microtiter plate is incubated for 15 minutes at 4°C and the precipitate is fixed onto #30 glass fiber paper (Schleicher & Schuell) using a Skatron semi-automatic harvester. The filters are then washed with additional TCA (5%) containing sodium pyrophosphate (1%), rinsed with aqueous ethanol (70%), dried, and transferred to scintillation vials (6). Each vial receives 2 mls of scintillation cocktail and is counted in a Beckman beta counter. […]
Turning to `CN1c2ccccc2NC(=O)c2cccnc21` [Example 1, 6,11-Dihydro-11-methyl-5H-pyrido[2,3-b][1,5]benzodiazepin-5-one], the inhibition at 10 µg/mL worked out at 37%.
On the same count and under the same terms, the value for `CCCN1c2ccccc2N(C)C(=O)c2cccnc21` [Example 3, 6,11-Dihydro-6-methyl-11-propyl-5H-pyrido[2,3-b][1,5]benzodiazepin-5-one] was 92%.
Same read-out and setting: next, `CCCCN1c2ccccc2N(C)C(=O)c2cccnc21` [Example 6, 11-Butyl-6,11-dihydro-6-methyl-5H-pyrido[2,3-b][1,5]-benzodiazepin-5-one]: 46%; `CN1C(=O)c2cccnc2N(CCO)c2ccccc21` [Example 7, 6,11-Dihydro-11-(2-hydroxyethyl)-6-methyl-5H-pyrido[2,3-b][1,5]benzodiazepin-5-one]: 50%.
Still for that read-out and setting: the value for `CN1C(=O)c2cccnc2N(C)c2ccccc21` [Example 10, 6,11-Dihydro-6,11-dimethyl-5H-pyrido[2,3-b][1,5]benzodiazepin-5-one] was 68%; that for `CCN1C(=O)c2cccnc2N(C)c2ccccc21` [Example 11, 6,11-Dihydro-6-ethyl-11-methyl-5H-pyrido[2,3-b][1,5]benzodiazepin-5-one] was 88%; that for `CCCN1C(=O)c2cccnc2N(C)c2ccccc21` [Example 12, 6,11-Dihydro-11-methyl-6-propyl-5H-pyrido[2,3-b][1,5]benzodiazepin-5-one] was 89%.
In the case of `CC(C)N1C(=O)c2cccnc2N(C)c2ccccc21` [Example 13, 6,11-Dihydro-11-methyl-6-methylethyl-5H-pyrido[2,3-b][1,5]benzodiazepin-5-one], the inhibition at 10 µg/mL turned out to be 91%.
Same read-out and setting: next, `CCCCN1C(=O)c2cccnc2N(C)c2ccccc21` [Example 14, 6-Butyl-6,11-dihydro-11-methyl-5H-pyrido[2,3-b][1,5] benzodiazepin-5-one]: 75%.
For `Cc1cc(C)c2c(n1)N(C)c1cc(C)c(C)cc1N(C)C2=O` [Example 16, 6,11-Dihydro-2,4,6,8,9,11-hexamethyl-5H-pyrido[2,3-b][1,5]benzodiazepin-5-one], the inhibition at 10 µg/mL was determined as 44%.
The same measure, in the same setting: next, `CC(=O)N1c2ccccc2N(C)C(=O)c2cccnc21` [Example 18, 11-Acetyl-6,11-dihydro-6-methyl-5H-pyrido[2,3-b][1,5]benzodiazepin-5-one]: 29%; `CSCN1C(=O)c2cccnc2N(CSC)c2cc(Cl)ccc21` [Example 20, 6,11-bis-(methylthiomethyl)-9-chloro-6,11-dihydro-5H-pyrido-[2,3-b][1,5]benzodiazepin-5-one]: 69%; `CCN1C(=O)c2cccnc2N(CC)c2ccccc21` [Example 21, 6,11-Diethyl-6,11-dihydro-5H-pyrido[2,3-b][1,5]benzodiazepin-5-one]: 96%.
As for `CCN1c2ccccc2NC(=O)c2cccnc21` [Example 23, 6,11-Dihydro-11-ethyl-5H-pyrido[2,3-b][1,5]benzodiazepin-5-one], the inhibition at 10 µg/mL came out at 100%.
Still for that read-out and setting: the value for `CN1C(=O)c2cccnc2N(Cc2ccccc2)c2ccccc21` [Example 25, 6,11-Dihydro-11-benzyl-6-methyl-5H-pyrido[2,3-b][1,5]benzodiazepin-5-one] was 73%.
On the same count and under the same terms, the value for `CN1C(=O)c2cccnc2N(CC(=O)OC(C)(C)C)c2ccccc21` [Example 26, 6,11-Dihydro-11-(t-butoxycarbonyl)methyl-6-methyl-5H-pyrido[2,3-b][1,5] benzodiazepin-5-one] was 81%; that for `CCOC(=O)CN1c2ccccc2N(C)C(=O)c2cccnc21` [Example 27, 6,11-Dihydro-11-(ethoxycarbonyl)methyl-6-methyl-5H-pyrido[2,3-b][1,5] benzodiazepin-5-one] was 64%.
Same read-out and setting: the value for `Cc1cc2c(cc1C)N(C)C(=O)c1cccnc1N2` [Example 28, 6,11-Dihydro-6,8,9-trimethyl-5H-pyrido[2,3-b][1,5]benzodiazepin-5-one] was 65%.
For `CCN1c2cc(C)c(C)cc2N(C)C(=O)c2cccnc21` [Example 29, 6,11-Dihydro-11-ethyl-6,8,9-trimethyl-5H-pyrido[2,3-b][1,5]benzodiazepin-5-one], the inhibition at 10 µg/mL is 99%.
Turning to `CCN1c2ccc(C(=O)OC)cc2N(C)C(=O)c2cccnc21` [Example 30, 6,11-Dihydro-8-methoxycarbonyl-11-ethyl-6-methyl-5H-pyrido[2,3-b][1,5] benzodiazepin-5-one], the inhibition at 10 µg/mL came out at 94%.
Still for that read-out and setting: the value for `CCN1C(=O)c2cccnc2Nc2cccc(C)c21` [Example 31, 6,11-Dihydro-6-ethyl-7-methyl-5H-pyrido[2,3-b][1,5]benzodiazepin-5-one] was 92%; that for `Cc1cccc2c1NC(=O)c1cccnc1N2` [Example 32, 6,11-Dihydro-7-methyl-5H-pyrido[2,3-b][1,5]benzodiazepin-5-one] was 51%.
Still for that read-out and setting: next, `CCN1c2ccccc2N(CF)C(=O)c2cccnc21` [Example 34, 6,11-Dihydro-11-ethyl-6-fluoromethyl-5H-pyrido-[2,3-b][1,5]benzodiazepin-5-one]: 85%.

The experiment is the same for the next values; noted with them: 10µg/ml; Table II, known compounds of formula IA.
On to `Cc1cc2c(cc1C)N(C)C(=O)c1cccnc1N2` [Formula IA e, 6,8,9-trimethyl-6,11-dihydro-5H-pyrido[2,3-b][1,5]benzodiazepin-5-one], for which the “RT Inhibition % @ 10µg/ml” value is 65%.

The same experiment, now with this note: 10µg/ml; Table II, known compounds of formula IA; read-out: RT Inhibition % @ 10µg/ml.
Regarding `Cc1ccc2c(c1)N(C)C(=O)c1c(C)cc(C)nc1N2` [Formula IA a, 2,4,6,8-tetramethyl-6,11-dihydro-5H-pyrido[2,3-b][1,5]benzodiazepin-5-one], the inhibition at 10 µg/mL turned out to be 58%.
On the same count and under the same terms, the value for `CN1C(=O)c2cccnc2Nc2ccccc21` [Formula IA b, 6-methyl-6,11-dihydro-5H-pyrido[2,3-b][1,5]benzodiazepin-5-one] was 43%; that for `O=C1Nc2ccccc2Nc2ncccc21` [Formula IA c, 6,11-dihydro-5H-pyrido[2,3-b][1,5]benzodiazepin-5-one] was 22%.
The same measure, in the same setting: the value for `CCN1C(=O)c2cccnc2Nc2ccccc21` [Formula IA d, 6-ethy-6,11-dihydro-5H-pyrido[2,3-b][1,5]benzodiazepin-5-one] was 69%; that for `CCN1C(=O)c2cccnc2Nc2cc(C)c(C)cc21` [Formula IA f, 6-ethyl-8,9-dimethyl-6,11-dihydro-5H-pyrido[2,3-b][1,5]benzodiazepin-5-one] was 95%.
Still for that read-out and setting: the value for `CC(C)CN1C(=O)c2cccnc2Nc2ccccc21` [Formula IA g, 6-isobutyl-6,11-dihydro-5H-pyrido[2,3-b][1,5]benzodiazepin-5-one] was 33%.

The experiment is the same for the next values; noted with them: read-out: RT Inhibition % @ 10µg/ml.
As for `CCN1c2ccccc2NC(=S)c2cccnc21` [Example 24, 6,11-Dihydro-11-ethyl-5H-pyrido[2,3-b][1,5]benzodiazepin-5-thione], the inhibition at 10 µg/mL came to 100%.
Still for that read-out and setting: next, `CN1C(=O)c2cccnc2N(CCF)c2ccccc21` [Example 33, 6,11-Dihydro-11-(2-fluoroethyl)-6-methyl-5H-pyrido[2,3-6][1,5]benzodiazepin-5-one]: 97%.

For the origin of these results see patent publication EP0393604B1, “6,11-Dihydro-5H-pyrido(2,3-b)(1,5,)benzodiazepin-5-ones and thiones and their use in the prevention or treatment of AIDS” (priority 1989, dated 1990).
